This experiment has as its target T1, specific receptor on the membrane of human neutrophils (leukotriene B4) (Homo sapiens, UniProt Q15722).
T1 construct: Freshly-prepared buffy coat layers from two individuals were obtained from a local blood donor center; endogenous in cells; host or cells: intact human peripheral blood neutrophils from buffy coats of two donors
The experiment can be described thus: Inhibition of Binding of ^3 H-LTB4 to Peripheral Human Neutrophils. The conditions noted are these: for inhibition at 10 µM / inhibition at 1 µM / inhibition at 0.1 µM: read-out: LTB4 Binding Inhibition; for inhibition at 0.1 µM: drug concentration 10^-7 M. The procedure:
Cells used in the assay were isolated by standard techniques of centrifugation on Ficoll-Hypaque, dextran 70 sedimentation and hypotonic lysis. The following procedure was used. Freshly-prepared buffy coat layers from two individuals were obtained from a local blood donor center. The cells were mixed and diluted to 484 ml with phosphate buffered saline containing heparin (10 units/ml) and heat-inactivated calf serum (5%). This was divided into 20 ml aliquots and the aliquots layered on top of Ficoll-Paque (12 ml). The material was then centrifuged at 500 g for 40 minutes at room temperature. The resulting upper layer of platelets and mononuclear cells was discarded. The lower layer containing erythrocytes and neutrophils was retained. Buffer was added (1 ml per 4 ml of lower layer) and the suspension mixed. For each milliliter of this mixture, 0.33 ml of 6% Macrodex was added. After stirring, the cells were allowed to sediment for 1 hour at 37° C. The resulting erythrocyte pellet was discarded and the neutrophil enriched supernatant fluid centrifuged at 500 g for 10 minutes at 4° C. Erythrocytes still present in this cell pellet were lysed by incubating the cells with 5-8 ml ice-cold distilled water for 30-45 seconds. Subsequently, the volume was made up to 50 ml by addition of ice-cold buffer and the cells resuspended. The suspension was then centrifuged at 300 g for 10 minutes at 4° C. The cells were finally resuspended at a cell density of 2×10^7 cells/ml in the assay buffer This buffer consisted of Hanks' balanced salt solution and 0.1% ovalbumin (pH 7.3).
The amount of bound ^3 H-LTB4 was then measured and compared with the amount bound in the absence of test compound. The assay was carried out in microcentrifuge tubes by adding first 10 μl test compound dissolved in DMSO, followed by adding 20 μl ^3 H-LTB4 diluted in assay buffer, and finally adding 500 μl of the cell suspension. At the end of the 10 minutes incubation, 300 μl of a mixture of dibutyl and dinonyl phthalate (7:2) were added and the tubes centrifuged for 2 minutes in a microcentrifuge. The radioactivity bound to the cell pellet was measured by scintillation spectroscopy. Appropriate corrections for nonspecific bonding of ^3 H-LTB4 were made.

Where [1] appears, read: drug concentration 10^-5 M, 0.1-0.2 nM ^3 H-LTB4, 10 minutes at 4° C.
The mark [2] stands for this setting: drug concentration 10^-6 M, 0.1-0.2 nM ^3 H-LTB4, 10 minutes at 4° C.
[3] abbreviates: 0.1-0.2 nM ^3 H-LTB4, 10 minutes at 4° C.

Data on 23 compounds can be found in patent US5171882A, “Leukotriene antagonists” (Eli Lilly and Company, priority 1990, dated 1992).

A word on the inhibition: it is the drop in the measured response relative to a control, in per cent.

Read-outs that look alike come from different tables or passages of the source.

T1 sequence (Q15722 whole entry): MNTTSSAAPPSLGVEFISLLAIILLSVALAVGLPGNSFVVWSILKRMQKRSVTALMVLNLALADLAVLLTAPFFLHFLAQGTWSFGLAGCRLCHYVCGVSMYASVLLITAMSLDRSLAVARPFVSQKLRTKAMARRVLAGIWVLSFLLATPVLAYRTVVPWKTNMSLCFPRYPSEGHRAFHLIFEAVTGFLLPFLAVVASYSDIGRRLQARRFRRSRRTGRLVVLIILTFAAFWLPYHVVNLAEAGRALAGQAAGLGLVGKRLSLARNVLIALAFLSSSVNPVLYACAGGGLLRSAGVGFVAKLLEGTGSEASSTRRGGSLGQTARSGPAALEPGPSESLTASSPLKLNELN

Regarding `CCCCCCCCCCOc1ccc(C(=O)c2cccc(C(=O)OCC)c2)cc1Cc1nnn[nH]1` [Example 2, 3-[4-(Decyloxy)-3-(1H-tetrazol-5-ylmethyl)-benzoyl]benzoic acid, ethyl ester], under setting [1], the inhibition at 10 µM is -11%. For the same compound, the inhibition at 1 µM under setting [2] is 14%.
On to `CCCCCCCCCCOc1ccc(C(=O)c2cccc(C(=O)OCC)c2)cc1CC(=O)OCC` [Example 4, 2-(Decyloxy)-5-[3-(ethoxycarbonyl)benzoyl]benzeneacetic acid, ethyl ester], for which, under setting [1], the inhibition at 10 µM was -5%. Also, the inhibition at 1 µM under setting [2] is -1%.
The like results for `CCCCCCCCCCOc1ccc(C(=O)c2cccc(C#N)c2)cc1CC#N` [Example 12, 5-(3-Cyanobenzoyl)-2-(decyloxy)benzeneacetonitrile] were, in that order, 3% and -1%.
The like results for `CCCCCCCCCCOc1ccc(C(=O)c2cccc(-c3nnn[nH]3)c2)cc1CC(=O)OCC` [Example 15, 2-(Decyloxy)-5-[3-(1H-tetrazol-5-yl)benzoyl]benzeneacetic acid, ethyl ester] were, in that order, -13% and 1%.
For `CCCCCCCCCCOc1ccc(C(=O)c2cccc(-c3nnn[nH]3)c2)cc1Cc1nnn[nH]1` [Example 17, [4-(Decyloxy)-3-(1H-tetrazol-5-ylmethyl)phenyl][3-(1H-tetrazol-5-yl)phenyl]methanone], the inhibition at 10 µM under setting [1] turned out to be 81%. Besides, the inhibition at 1 µM under setting [2] was found to be 20%.
On the same counts, the results for `CCCCCCCCCCCCCCOc1ccc(C(=O)c2cccc(C(=O)O)c2)cc1CC(=O)O` [Example 26, 5-(3-Carboxybenzoyl)-2-(tetradecyloxy)benzeneacetic acid] are 63% and 10%.
On to `CCCCCCCCCCCCOc1ccc(C(=O)c2cccc(C(=O)O)c2)cc1CC(=O)O` [Example 27, 5-(3-Carboxybenzoyl)-2-(dodecyloxy)benzeneacetic acid], for which, under setting [1], the inhibition at 10 µM was 80%. Also, the inhibition at 1 µM under setting [2] came to 18%.
The like results for `CCCCCCCCCCOc1ccc(C(=O)c2ccccc2C(=O)O)cc1CC(=O)OCC` [Example 32, 5-(2-Carboxybenzoyl)-2-(decyloxy)benzeneacetic acid, ethyl ester] were, in that order, 19% and -6%.
Turning to `CCCCCCCCCCOc1ccc(C(=O)c2ccccc2C(=O)O)cc1CC(=O)O` [Example 35, 5-(2-Carboxybenzoyl)-2-(decyloxy)benzeneacetic acid], the “LTB4 Binding Inhibition” value is, setting by setting: under setting [1], 53 percent inhibition; under setting [2], 2 percent inhibition.
`CCCCCCCCCCOc1ccc(C(O)c2cccc(C(=O)OCC)c2)cc1CC(=O)OCC` (stereo not shown) [Example 40, 2-(Decyloxy)-5-{[3-(ethoxycarbonyl)phenyl]hxdroxymethyl}benzeneacetic acid, ethyl ester]: the inhibition at 10 µM under setting [1] is -14%. The inhibition at 1 µM under setting [2] was -10%.
The like results for `CCCCCCCCOc1ccc(C(O)c2cccc(C(=O)O)c2)cc1CC(=O)O` (stereo not shown) [Example 44, 5-[(3-Carboxyphenyl)hydroxymethyl]-2-(octyloxy)benzeneacetic acid] were, in that order, 41% and 11%.
On the same counts, the results for `CCCCCCCCCCOc1ccc(Cc2cccc(C(=O)O)c2)cc1CCC(=O)O` [Example 50, 5-[(3-Carboxyphenyl)methyl]-2-(decyloxy)benzenepropanoic acid] are 88% and 41%.
On to `O=C(O)CCc1cc(C(=O)c2cccc(C(=O)O)c2)ccc1OCCCCC=Cc1ccccc1` [Example 76, 5-(3-Carboxybenzoyl)-2-[6-(phenyl-5-hexenyl)oxy]benzenepropanoic acid], for which the inhibition at 10 µM under setting [1] was found to be 96%. For the same compound, the inhibition at 1 µM under setting [2] was 91%. In addition, under setting [3], the inhibition at 0.1 µM turned out to be 36%.
As for `O=C(O)CCc1cc(C(=O)c2cccc(C(=O)O)c2)ccc1OCCCC[S+]([O-])c1ccccc1` (stereo not shown) [Example 77, 5-(3-Carboxybenzoyl)-2-[4-(phenylsulfinyl)-butoxy]benzenepropanoic acid], the inhibition at 10 µM under setting [1] is 22%. For the same compound, under setting [2], the inhibition at 1 µM turned out to be 8%.
As for `O=C(O)CCc1cc(C(=O)c2cccc(C(=O)O)c2)ccc1OCCCCS(=O)(=O)c1ccccc1` [Example 78, 5-(3-Carboxybenzoyl)-2-[4-(phenylsulfonyl)-butoxy]benzenepropanoic acid], the inhibition at 10 µM under setting [1] amounted to 18%. Under setting [2], the inhibition at 1 µM amounted to 4%.
With `COc1ccc(CCCCCCOc2ccc(C(=O)c3cccc(C(=O)O)c3)cc2CCC(=O)O)cc1` [Example 80, 5-(3-Carboxybenzoyl)-2-{[6-(4-methoxyphenyl)-hexyl]oxy}benzenepropanoicacid], under setting [1], the inhibition at 10 µM was found to be 105%. The inhibition at 1 µM under setting [2] was 98%. Besides, under setting [3], the inhibition at 0.1 µM came to 68%.
With `O=C(O)CCc1cc(C(=O)c2cccc(C(=O)O)c2)ccc1OCCCCCCc1ccc(F)cc1` [Example 82, 5-(3-Carboxybenzoyl)-2-{[6-(4-fluorophenyl)hexyl]oxy}benzenepropanoic acid], the inhibition at 10 µM under setting [1] was 104%. For the same compound, under setting [2], the inhibition at 1 µM came out at 81%. Also, the inhibition at 0.1 µM under setting [3] turned out to be 22%.
In the case of `CSc1ccc(C=CCCCCOc2ccc(C(=O)c3cccc(C(=O)O)c3)cc2CCC(=O)O)cc1` [Example 83, 5-(3-Carboxybenzoyl)-2-{[6-(4-methylmercaptophenyl)-5-hexenyl]oxy}benzenepropanoic acid], the inhibition at 10 µM under setting [1] amounted to 103%. Moreover, under setting [2], the inhibition at 1 µM turned out to be 79%. Also, the inhibition at 0.1 µM under setting [3] is 18%.
On the same counts, the results for `COc1cccc(C=CCCCCOc2ccc(C(=O)c3cccc(C(=O)O)c3)cc2CCC(=O)O)c1` [Example 84, 5-(3-Carboxybenzoyl)-2-{[6-(3-methoxyphenyl)-5-hexenyl]oxy}benzenepropanoic acid] are 99%, 91% and 49%.
Regarding `COc1ccccc1C=CCCCCOc1ccc(C(=O)c2cccc(C(=O)O)c2)cc1CCC(=O)O` [Example 85, 5-(3-Carboxybenzoyl)-2-{[6-(2-methoxyphenyl)-5-hexenyl]oxy}benzenepropanoic acid], the inhibition at 1 µM amounted to 97%. The inhibition at 10 µM under setting [1] turned out to be 101%. Besides, under setting [3], the inhibition at 0.1 µM was 86%.
In the case of `COc1cccc(CCCCCCOc2ccc(C(=O)c3cccc(C(=O)O)c3)cc2CCC(=O)O)c1` [Example 86, 5-(3-Carboxybenzoyl)-2-{[6-(3-methoxyphenyl)hexyl]oxy}benzenepropanoic acid], the inhibition at 10 µM under setting [1] is 95%. Besides, the inhibition at 1 µM under setting [2] was determined as 88%. Besides, the inhibition at 0.1 µM under setting [3] turned out to be 46%.
In the case of `COc1ccccc1CCCCCCOc1ccc(C(=O)c2cccc(C(=O)O)c2)cc1CCC(=O)O` [Example 87, 5-(3-Carboxybenzoyl)-2-{[6-(2-methoxyphenyl)hexyl]oxy}benzenepropanoic acid], the inhibition at 10 µM was determined as 100%. For the same compound, under setting [2], the inhibition at 1 µM was found to be 91%. Also, under setting [3], the inhibition at 0.1 µM was determined as 34%.
On to `CS(=O)(=O)c1ccc(C=CCCCCOc2ccc(C(=O)c3cccc(C(=O)O)c3)cc2CCC(=O)O)cc1` [Example 91, 5-(3-Carboxybenzoyl)-2-{[6-(4-methylsulfonylphenyl)-5-hexenyl]oxy}benzenepropanoic acid], for which, under setting [1], the inhibition at 10 µM worked out at 98%. Further, under setting [2], the inhibition at 1 µM stood at 88%. Also, under setting [3], the inhibition at 0.1 µM turned out to be 60%.
